Patent US5698222A, “Calcium supplement” (Abbott Laboratories, priority 1995, dated 1997)
Where a name gives a salt, the structure may show the parent alone. Read-outs that look alike come from different tables or passages of the source. Blank lines part the entries; values can stand above or below the molecule they belong to.

Experiments:
[1] = values from Whiting article; cited from earlier work
[2] = titratable acidity of calcium sources; format: physicochemical; conditions: pH 3.5 raised to pH 8.3, 40 g sample
Text: Acidity is desired in the liquid nutritional product of the present invention for several reasons such as: to maintain the calcium salt solubility, to complement flavor, to control microbial growth, and to enhance the role of preservatives, specifically potassium benzoate or sodium benzoate. On the other hand, too much acidity can result in increased tartness and sourness that make the product undesirable from a sensory point of view. […] Titratable acidity is an indication of the total acidity of a beverage.

[3] = large amounts; cited from earlier work
[4] = rats, three weeks, as compared to a control; cited from earlier work
[5] = without aluminum-containing drugs; cited from earlier work
[6] = Procedure: In this evaluation solubility was determined by a visual examination.
[7] = cited from earlier work
[8] = piglets; cited from earlier work
[9] = low birth weight infants; cited from earlier work

Molecule: O=C(O)O [CaCO3 (from Dolomite)]
Aluminum Content [1]: 171-315 parts per million (ppm)

Molecule: O=C(O)O [CaCO3 (from fossil shell)]
Aluminum Content [1]: 4,400 parts per million (ppm)

Molecule: O=C(O)O [Calcium Carbonate, calcium carbonate]
Titratable acidity [2]: 61.4 mL of 0.1N NaOH
adverse effects [3]: can lead to constipation and abdominal distention

Molecule: [Ca+2].[Cl-].[Cl-] [Calcium Chloride, calcium chloride]
Titratable acidity [2]: 0.7 mL of 0.1N NaOH

Molecule: O=C(O)CC(O)(CC(=O)O)C(=O)O [Calcium Citrate, calcium citrate]
relative calcium bioavailability [4]: 110%
aluminum toxicity risk [5]: does not pose a risk of aluminum toxicity
Titratable acidity [2]: 57.5 mL of 0.1N NaOH

Molecule: [Ca+2].[OH-].[OH-] [Calcium Hydroxide, calcium hydroxide]
Titratable acidity [2]: 60.6 mL of 0.1N NaOH

Titratable acidity [2]: 47.1 mL of 0.1N NaOH
Molecule: CC(O)C(=O)O (centres unmarked) [Calcium Lactate, calcium lactate]

solubility at time of manufacture ([6]; pH 3.5): soluble
solubility at 1 month ([6]; pH 5): partially Soluble
solubility at time of manufacture ([6]; pH 5): soluble
Molecule: O=C(O)[C@H](O)[C@@H](O)[C@H](O)[C@H](O)CO [D-Gluconic-Acid, D-gluconic acid (hemicalcium salt)]

Titratable acidity [2]: 48.6 mL of 0.1N NaOH
Molecule: O=P([O-])([O-])[O-].O=P([O-])([O-])[O-].[Ca+2].[Ca+2].[Ca+2] [Tricalcium Phosphate, tricalcium phosphate]
relative calcium bioavailability [4]: 110%

Molecule: O=P(O)(O)OCC(O)CO (centres unmarked) [glycerophosphate]
pKf [7]: 6.1

Molecule: calcium citrate malate
Titratable acidity [2]: 53.2 mL of 0.1N NaOH

Titratable acidity [2]: 43.5 mL of 0.1N NaOH
Molecule: calcium glycerophosphate [CaGP]
effectiveness as source of calcium in TPN solutions [8]: as effective as calcium gluconate
effectiveness as source of calcium in TPN solutions [9]: as effective as calcium gluconate
